Measurements reported in US20260035452A1 (THE UNIVERSITY OF BIRMINGHAM, priority 2022, published 2026).
No end group written: not given here.

Test system: dorsal air pouch of mice
Experiment: In vivo air pouch model
Conditions: 1 μg/mice into air pouch, 24 h
Protocol: FIG. 3: Mice were treated with IL-17 vehicle (Ctrl), IL-17 (1 μg/mice) alone (IL-17) or peptide (FM-0410) (1 μg/mice) and thereafter total cell number from pouches inflammatory exudates was evaluated at 24 h. Data were expressed as millions of cells for pouch and presented as means±S.D. of n=7 mice per group. Statistical analysis was conducted by one-way ANOVA followed by Bonferroni's for multiple comparisons. ^##P≤0.01, ^###P≤0.005 vs Ctrl group; *P≤0.05 vs IL-17 group.
FIG. 4: Inflammatory supernatants obtained from the pouch cavities were assayed using a Proteome Profiler Cytokine Array for Ctrl, IL-17 and FM-0410 experimental group. Densitometric analysis is presented as heatmap. Data (expressed as INT/mm2) are presented as means±S.D. of positive spots of three independent experiments run each with n=7 mice per group.
FIG. 5: Mice were treated with IL-17 vehicle (Ctrl), IL-17 (1 μg/mice), or peptide (FM-0410) (1 μg/mice) and inflammatory fluids were assayed by Elisa for IL-6. Data were expressed as pg/ml and presented as means±S.D. of n=7 mice per group. Statistical analysis was conducted by one-way ANOVA followed by Bonferroni's for multiple comparisons. ^##P≤0.01 vs CTRL group. […]
Specifically, dorsal air pouches were prepared by injection of 2.5 ml of air on day 0 and day 3 as previously described (Maione et al., 2009). […] Inflammatory exudates were collected and measured to evaluate the level of inflammatory cyto-chemokines. Cell number was determined by TC20 automated cell counter (Bio-Rad, Milan, Italy) using Bio-Rad's TC20 automated cell counter uses disposable slides, TC20 trypan blue dye (0.4% trypan blue dye w/v in 0.81% sodium chloride and 0.06% potassium phosphate dibasic solution) and a CCD camera to count cells based on the analyses of capture images (Maione et al., 2018).
Methods: The levels of IL-6 in the cellular and air pouch inflammatory supernatants at 24 h were measured using commercially available enzyme-linked immunosorbent assay kit (ELISA kit, R&D System, Milan, Italy) according to the manufacturer instructions. […]

Ac-LEKILVSVGATAVTPIVHHVAC [FM-0410]
cyto-chemokines profile of pouch fluid (Proteome Profiler Cytokine Array): selective upregulation in a range of mediators
level of IL-6 in pouch fluids: increased level of IL-6 compared to control group
number of inflammatory leukocytes (total cell number from pouch exudates): marked increase in inflammatory infiltrates compared to control but also to IL-17-treated mice
